Assay results taken from patent publication US7153993B2, “Process for making polymorphic form A of 4-[6-acetyl-3-[3-(4-acetyl-3-hydroxy-2-propylphenylthio)propoxy]-2-propylphenoxy]butyric acid” (Medicinova, Inc., priority 2003, dated 2006).
In brackets after ≈: the same amount, converted by molar mass. Each block holds one compound with its values, some of them ahead of it.

Assays:
[1] = Oral activity for treatment of asthma and allergic diseases; format: in vivo
[2] = Solubility of crystalline polymorphs in ether; format: physicochemical
Source text: After re-crystallization with individual solvents, compound (1) was subjected to powder X-ray diffractometry, thermal analysis and determination of solubility in ether; thus an exploratory evaluation of the crystalline polymorphism was made.

[3] = Solubility of compound (1) in ethanol/water (2:1); format: physicochemical; settings: stirred one hour
Experimental: Samples of compound (1) (5 g) were suspended in ethanol/water (2:1, 100 mL) and stirred for one hour at temperatures of 22° C., 30° C., and 40° C., respectively. The suspensions were filtered and the solids dried in a vacuum oven at room temperature overnight to give the insoluble material. The solubilities were calculated by subtractive means based on recovered material.

SMILES: CCCc1c(SCCCOc2ccc(C(C)=O)c(OCCCC(=O)O)c2CCC)ccc(C(C)=O)c1O [Compound (1), 4-[6-acetyl-3-[3-(4-acetyl-3-hydroxy-2-propylphenylthio)propoxy]-2-propylphenoxy]butyric acid]
oral activity for treatment of asthma and allergic diseases [1]: orally active

Solubility in ether ([2]; ether, listed as I): 36.7 mg/mL (≈ 69.2 mM)
SMILES: CCCc1c(SCCCOc2ccc(C(C)=O)c(OCCCC(=O)O)c2CCC)ccc(C(C)=O)c1O [Form I, 4-[6-acetyl-3-[3-(4-acetyl-3-hydroxy-2-propylphenylthio)propoxy]-2-propylphenoxy]butyric acid]

solubility ([2]; ether, organic solvent or mixture): 40.5 mg/mL (≈ 76.3 mM)
SMILES: CCCc1c(SCCCOc2ccc(C(C)=O)c(OCCCC(=O)O)c2CCC)ccc(C(C)=O)c1O [Form II, 4-[6-acetyl-3-[3-(4-acetyl-3-hydroxy-2-propylphenylthio)propoxy]-2-propylphenoxy]butyric acid]

Solubility in ether ([2]; ether, listed as III): 35.3 mg/mL (≈ 66.5 mM)
SMILES: CCCc1c(SCCCOc2ccc(C(C)=O)c(OCCCC(=O)O)c2CCC)ccc(C(C)=O)c1O [Form III, 4-[6-acetyl-3-[3-(4-acetyl-3-hydroxy-2-propylphenylthio)propoxy]-2-propylphenoxy]butyric acid]

Solubility in ether ([2]; ether, listed as IV): 45.8 mg/mL (≈ 86.3 mM)
SMILES: CCCc1c(SCCCOc2ccc(C(C)=O)c(OCCCC(=O)O)c2CCC)ccc(C(C)=O)c1O [Form IV, 4-[6-acetyl-3-[3-(4-acetyl-3-hydroxy-2-propylphenylthio)propoxy]-2-propylphenoxy]butyric acid]

Solubility in ether ([2]; ether, listed as V): 47.6 mg/mL (≈ 89.7 mM) | solubility compared to the other polymorphs ([2]; qualitative statement, solvent not stated): superior to the other polymorphs | Solubility in ethanol/water (2:1) ([3]; 30° C., listed as V (form A)): 15.7 mg/mL (≈ 29.6 mM) | Solubility in ethanol/water (2:1) ([3]; 40° C., listed as V (form A)): 46 mg/mL (≈ 86.7 mM) | solubility at 1 h ([3]; ethanol/water (2:1), 22 °C, organic solvent or mixture, thermodynamic from solid, 22° C.): 6.7 mg/mL (≈ 12.6 mM)
SMILES: CCCc1c(SCCCOc2ccc(C(C)=O)c(OCCCC(=O)O)c2CCC)ccc(C(C)=O)c1O [Form V, 4-[6-acetyl-3-[3-(4-acetyl-3-hydroxy-2-propylphenylthio)propoxy]-2-propylphenoxy]butyric acid]

Solubility in ethanol/water (2:1) ([3]; 22° C.): 3.4 mg/mL (≈ 6.41 mM) | Solubility in ethanol/water (2:1) ([3]; 30° C.): 6.1 mg/mL (≈ 11.5 mM) | Solubility in ethanol/water (2:1) ([3]; 40° C.): 17.2 mg/mL (≈ 32.4 mM)
SMILES: CCCc1c(SCCCOc2ccc(C(C)=O)c(OCCCC(=O)O)c2CCC)ccc(C(C)=O)c1O [undesired monoclinic polymorph, 4-[6-acetyl-3-[3-(4-acetyl-3-hydroxy-2-propylphenylthio)propoxy]-2-propylphenoxy]butyric acid]
